Data from US10159265B2, “Feed composition for reducing ruminant methanogenesis” (priority 2012, dated 2018).
“Also recorded” adds a separate entry of the source. Marks after values point to notes of the source that are not given here.

Columns and labels:
[1] = system: "in vitro" rumen fluid culture; assay: Biogas production in "in vitro" rumen fluid culture (pressure meter); assay type: cell-based, calves; design: Average biogas production / Cumulative biogas production / Biogas production: unit not given here; details: Exp 1
Method: (§1) Two trials following an identical experimental protocol were designed to study the effect of different pure flavonoids on rumen fermentation using a simulatory “in vitro” system based on the experimental protocol described by Theodorou M K et al. (1994) Animal Feed Science and Technology, 48 (3), p. 185-197; Mauricio, R. M., et al. (1999) Animal Feed Science and Technology 79, 321-330.
Gas production was determined from a semi-automatic pressure meter, the relationship between pressure levels and the produced gas volume was previously calculated.
(§2) Rumen cannulated calves which received a mixed ration mainly composed of concentrate (90:10) were used as rumen fluid donor; feed composition is presented in Table 1. The inoculum was collected and filtered through two-layer surgical gauze and kept in thermo pots. Flavonoids (Table 2) plus 600 mg of concentrate (Table 1) and 60 mg of barley straw as the substrate were dosed by triplicate in preheated bottles (39° C.) and maintained under anaerobic conditions. Flavonoids isonaringin, neoeritrocin, poncirin were purchased from INDOFINE Chemical Company, Inc (USA). 10 ml of rumen fluid and 40 ml of incubation medium were added to the bottles (McDougall, El (1948) Studies on ruminant saliva. 1. The composition and output of sheep's saliva. Biochem J. 43(1) 99-109). Once the bottles were filled and the anaerobic condition was applied, the bottles were sealed and the incubation process was started in a hot water bath. […] Each sample was incubated in triplicate in two sets or batches.

[2] = system: methanogenic (archea) populations; assay: Methane production in "in vitro" rumen fluid culture; assay type: cell-based, calves; design: Average methane production / Accumulated methane production / Methane production / Cumulative methane production: unit not given here; details: Exp 1
Description: as §1, §2
The effects of flavonoids substances on fermentation activity of certain archea populations which are theoretically responsible for the methane production were analyzed.
The experimental design allows determining whether the effect of flavonoids on methane reduction was derived from a general reduction in microbial activity and biogas production or contrarily flavonoid affects specifically on methanogenic (archea) populations. The presence of flavonoids in the culture medium reduced methane contribution in the total biogas production (P<0.05) although, again, the aforementioned impact was heterogeneous.

[3] = system: "in vitro" ruminal fluid cultures; assay: Volatile fatty acid concentration and molar proportions in "in vitro" ruminal fluid cultures; assay type: cell-based, calves; details: for % Acetate, molar ratio, average (μ) / % Butyrate, molar ratio, average (μ) / % Propionate, molar ratio, average (M) / VFA concentration, average (μ): average over incubation times
Description: as §1
(§3) Rumen cannulated calves which received a mixed ration mainly composed of concentrate (90:10) were used as rumen fluid donor; feed composition is presented in Table 1. The inoculum was collected and filtered through two-layer surgical gauze and kept in thermo pots. Flavonoids (Table 2) plus 600 mg of concentrate (Table 1) and 60 mg of barley straw as the substrate were dosed by triplicate in preheated bottles (39° C.) and maintained under anaerobic conditions. Flavonoids isonaringin, neoeritrocin, poncirin were purchased from INDOFINE Chemical Company, Inc (USA). 10 ml of rumen fluid and 40 ml of incubation medium were added to the bottles (McDougall, El (1948) Studies on ruminant saliva. 1. The composition and output of sheep's saliva. Biochem J. 43(1) 99-109). Once the bottles were filled and the anaerobic condition was applied, the bottles were sealed and the incubation process was started in a hot water bath. Pressure readings were made at 2, 4, 6, 8, 12, 24, 36 and 48 hours. Each sample was incubated in triplicate in two sets or batches.
[…] P., 1982 Science des Aliments 2, 131-144), lactate (Taylor, K. A. C. C., 1996. Appl. Biochem. Biotechnol. Enzym. Eng. Biotechnol. 56, 49-58) and ammonia (Chaney, A. L., Marbach, E. P., 1962. Clin. Chem. 8, 130-132) analyses.

[4] = system: "in vitro" ruminal fluid cultures; assay: Ammonia (N-NH3) concentration in "in vitro" ruminal fluid cultures; assay type: cell-based, calves; details: for N-NH3 concentration, average (M): average over incubation times
Description: as §1, §3
(§4) After 12 hours of incubation, one bottle (replicate) from each treatment was opened, pH was recorded and the bottle was sampled for volatile fatty acids (Jouany, J. P., 1982 Science des Aliments 2, 131-144), lactate (Taylor, K. A. C. C., 1996. Appl. Biochem. Biotechnol. Enzym. Eng. Biotechnol. 56, 49-58) and ammonia (Chaney, A. L., Marbach, E. P., 1962. Clin. Chem. 8, 130-132) analyses.

[5] = system: "in vitro" ruminal fluid culture; assay: Lactate concentration in "in vitro" ruminal fluid culture; assay type: cell-based, calves; details: 12 hours of incubation
Description: as §1, §3, §4

[6] = system: ruminal bacteria; assay: Bacterial DNA concentration by qPCR; assay type: cell-based, calves; details: 12 hours of incubation
Method: as §3, §4
(§5) The environmental DNA was extracted using the technique proposed by Yu and Morrison (2004). Quantification of Streptococcus bovis, Megasphaera elsdenii and Selenomonas ruminantium DNA was done by qPCR using specific primers (Tajima, K. et al. 2001. Appl. Environ. Microb. 67, 2766-2774; Ouwerkerk, D., et al. 2002. J. Appl. Microbiol. 92, 753-758). Results were statistically analyzed using the PROC MIXED procedure of SAS statistical package (SAS, 2000, User's guide: Statistics, version 8 editions inst., Inc., Cary, N.C.). The least significant difference was used to compare the means. Differences between means in which P<0.05 were accepted as significant.

[7] = system: Streptococcus bovis; assay: qPCR relative quantification of Streptococcus bovis; assay type: cell-based; details: 12 hours of incubation
Method: as §3, §4, §5

[8] = system: Selenomonas ruminantium; assay: qPCR relative quantification of Selenomonas ruminantium; assay type: cell-based; details: 12 hours of incubation
Method: as §3, §4, §5

[9] = system: Megasphaera elsdenii; assay: qPCR relative quantification of Megasphaera elsdenii; assay type: cell-based; details: 12 hours of incubation
Method: as §3, §4, §5

[10] = system: "in vitro" ruminal fluid cultures; assay: Ammonia (N-NH3) concentration in "in vitro" ruminal fluid cultures; assay type: cell-based, calves; details: 72 h
[11] = average over doses and incubation times
[12] = average over doses and incubation times, listed as neoeriocitrin

Compound: C[C@@H]1O[C@@H](OC[C@H]2O[C@@H](Oc3cc(O)c4c(c3)O[C@H](c3ccc(O)cc3)CC4=O)[C@H](O)[C@@H](O)[C@@H]2O)[C@H](O)[C@H](O)[C@H]1O [Isonaringin, isonaringin]
- Cumulative biogas production ([1]; 12 h incubation): 185.58
- Cumulative biogas production ([1]; 24 h incubation): 223.38
- Cumulative biogas production ([1]; 48 h incubation): 258.85
- Cumulative biogas production ([1]; 72 h incubation): 278.66
- Biogas production ([1]; dose 1, 0.2 g/kg DM): 235.13
- Biogas production ([1]; dose 2, 0.5 g/kg DM): 238.1
- Accumulated methane production ([2]; 12 h): 19.84
- Proportion of methane in the produced biogas ([2]; 12 h): 10.68
- Accumulated methane production ([2]; 24 h): 24.94
- Proportion of methane in the produced biogas ([2]; 24 h): 13.56
- Accumulated methane production ([2]; 48 h): 30.81
- Proportion of methane in the produced biogas ([2]; 48 h): 16.79
- Accumulated methane production ([2]; 72 h): 34.08
- Proportion of methane in the produced biogas ([2]; 72 h): 16.89
- Average methane production [2, 11]: 27.42^de
- Proportion of methane in the produced biogas [2, 11]: 14.48^bc
- Average methane production ([2]; average over doses and incubation times, listed as isonaringin): decreased
- Methane production ([2]; dose 1, 0.2 g/kg DM): 27.40
- Proportion of methane in the produced biogas ([2]; dose 1, 0.2 g/kg DM): 14.53
- Methane production ([2]; dose 2, 0.5 g/kg DM): 27.43
- Proportion of methane in the produced biogas ([2]; dose 2, 0.5 g/kg DM): 14.43
- % Acetate, molar ratio ([3]; 0 h): 62.51 mol/100 mol
- % Butyrate, molar ratio ([3]; 0 h): 9.07 mol/100 mol
- % Propionate, molar ratio ([3]; 0 h): 20.03 mol/100 mol
- A/P rate (acetate/propionate) ([3]; 0 h): 3.12
- VFA concentration ([3]; 0 h (initial constant value)): 13.78 mmol/L
- % Acetate, molar ratio ([3]; 12 h): 53.94 mol/100 mol
- % Butyrate, molar ratio ([3]; 12 h): 10.31 mol/100 mol
- % Propionate, molar ratio ([3]; 12 h): 30.20 mol/100 mol
- A/P rate (acetate/propionate) ([3]; 12 h): 1.79
- VFA concentration ([3]; 12 h): 36.49 mmol/L
- % Acetate, molar ratio ([3]; 72 h): 55.34 mol/100 mol
- % Butyrate, molar ratio ([3]; 72 h): 10.24 mol/100 mol
- % Propionate, molar ratio ([3]; 72 h): 26.94 mol/100 mol
- A/P rate (acetate/propionate) ([3]; 72 h): 2.06
- VFA concentration ([3]; 72 h): 52.26 mmol/L
- % Acetate, molar ratio, average (μ) [3]: 57.26 mol/100 mol
- % Butyrate, molar ratio, average (μ) [3]: 9.87 ^ab mol/100 mol
- % Propionate, molar ratio, average (M) [3]: 25.72 ^b mol/100 mol
- VFA concentration, average (μ) [3]: 34.18 mmol/L
- % Propionate, molar ratio, average (M) ([3]; listed as isonaringin): improved
- N-NH3 concentration ([4]; 0 h (initial constant value)): 149.99 mg/L
- N-NH3 concentration ([4]; 12 h): 165.46 mg/L
- N-NH3 concentration, average (M) [4]: 212.66 mg/L
- Lactate [5]: 92.4 mg/L
- Bacteria DNA [6]: 16.18 ^ab μg/ml
- Relative Quantification 2^(ΔΔCt) S. bovis [7]: 0.46
- Relative Quantification 2^(ΔΔCt) S. ruminantium [8]: 0.86
- Relative Quantification 2^(ΔΔCt) M. elsdenii [9]: 1.08 ^ab
- N-NH3 concentration [10]: 322.53 mg/L

Compound: C[C@@H]1O[C@@H](O[C@H]2[C@H](Oc3cc(O)c4c(c3)O[C@H](c3ccc(O)c(O)c3)CC4=O)O[C@H](CO)[C@@H](O)[C@@H]2O)[C@H](O)[C@H](O)[C@H]1O [Neoeriocitrin]
- Cumulative biogas production ([1]; 12 h incubation): 211.78
- Cumulative biogas production ([1]; 24 h incubation): 259.11
- Cumulative biogas production ([1]; 48 h incubation): 288.43
- Cumulative biogas production ([1]; 72 h incubation): 307.80
- Biogas production ([1]; dose 1, 0.2 g/kg DM): 277.08
- Biogas production ([1]; dose 2, 0.5 g/kg DM): 256.47
- Dosage effect on methane proportion of biogas ([2]; 500 vs. 200 mg/kg DM): tended to depress methane production
- Accumulated methane production ([2]; 12 h): 29.65
- Proportion of methane in the produced biogas ([2]; 12 h): 14.00
- Accumulated methane production ([2]; 24 h): 37.03
- Proportion of methane in the produced biogas ([2]; 24 h): 15.75
- Accumulated methane production ([2]; 48 h): 41.74
- Proportion of methane in the produced biogas ([2]; 48 h): 16.33
- Accumulated methane production ([2]; 72 h): 45.18
- Proportion of methane in the produced biogas ([2]; 72 h): 18.19
- Average methane production [2, 11]: 38.40^a
- Proportion of methane in the produced biogas [2, 11]: 16.07^a
- Average methane production [2, 12]: increased
- Proportion of methane in the produced biogas [2, 12]: significantly increased; also recorded: increased the methane proportion
- Methane production ([2]; dose 1, 0.2 g/kg DM): 39.51
- Proportion of methane in the produced biogas ([2]; dose 1, 0.2 g/kg DM): 15.96
- Methane production ([2]; dose 2, 0.5 g/kg DM): 37.28
- Proportion of methane in the produced biogas ([2]; dose 2, 0.5 g/kg DM): 16.17
- % Acetate, molar ratio ([3]; 0 h): 62.51 mol/100 mol
- % Butyrate, molar ratio ([3]; 0 h): 9.07 mol/100 mol
- % Propionate, molar ratio ([3]; 0 h): 20.03 mol/100 mol
- A/P rate (acetate/propionate) ([3]; 0 h): 3.12
- VFA concentration ([3]; 0 h (initial constant value)): 13.78 mmol/L
- % Acetate, molar ratio ([3]; 12 h): 55.73 mol/100 mol
- % Butyrate, molar ratio ([3]; 12 h): 11.84 mol/100 mol
- % Propionate, molar ratio ([3]; 12 h): 26.77 mol/100 mol
- A/P rate (acetate/propionate) ([3]; 12 h): 2.09
- VFA concentration ([3]; 12 h): 39.75 mmol/L
- % Acetate, molar ratio ([3]; 72 h): 56.21 mol/100 mol
- % Butyrate, molar ratio ([3]; 72 h): 11.79 mol/100 mol
- % Propionate, molar ratio ([3]; 72 h): 24.39 mol/100 mol
- A/P rate (acetate/propionate) ([3]; 72 h): 2.31
- VFA concentration ([3]; 72 h): 53.75 mmol/L
- % Acetate, molar ratio, average (μ) [3]: 58.15 mol/100 mol
- % Butyrate, molar ratio, average (μ) [3]: 10.90 ^b mol/100 mol
- % Propionate, molar ratio, average (M) [3]: 23.73 ^a mol/100 mol
- VFA concentration, average (μ) [3]: 35.76 mmol/L
- % Propionate, molar ratio, average (M) ([3]; listed as neoeritrocin): 23.7 mol/100 mol
- N-NH3 concentration ([4]; 0 h (initial constant value)): 149.99 mg/L
- N-NH3 concentration ([4]; 12 h): 186.19 mg/L
- N-NH3 concentration, average (M) [4]: 227.84 mg/L
- Lactate [5]: 122.5 mg/L
- Bacteria DNA [6]: 13.14 ^a μg/ml
- Relative Quantification 2^(ΔΔCt) S. bovis [7]: 0.62
- Relative Quantification 2^(ΔΔCt) S. ruminantium [8]: 0.79
- Relative Quantification 2^(ΔΔCt) M. elsdenii [9]: 0.76 ^a
- N-NH3 concentration [10]: 347.34 mg/L
